Tested on: VAChT KD^HOM mice
Assay: Grip force test in VAChT KD^HOM mice
Type: in vivo
Conditions: pyridostigmine i.p. 1 mg/kg, 30 min prior to the test, FIG. 4B, p<0.05
Protocol: To evaluate whether the alterations detected in neuromuscular transmission may affect neuromuscular function, we tested the performance of wild-type and mutant mice in motor tasks (FIG. 4). The wire-hang experiments were conducted as described (Sango et al. (1996) Mice lacking both subunits of lysosomal beta-hexosaminidase display gangliosidosis and mucopolysaccharidosis. Nat. Genet. 14:348-352) and time spent hanging upside down was determined with a cut-off time of 60 sec.
To measure grip force, we used a custom built force transducer connected to a small support that could be grasped by the mouse as described (Fowler et al. (2002) Motor and associative deficits in D2 dopamine receptor knockout mice. Int. J. Dev. Neurosci. 20:309-321). Five tests were performed per mouse with a maximum period of 50 sec for each animal over two different days. The force transducer was coupled to a computer and a routine was developed to record the maximal grip-force exerted. By comparison, VAChT KD^HET mice present no deficit in neuromuscular function as assessed in this test. Importantly, reduced grip-strength in VAChT KD^HOM mice was improved by prior injection of one of three cholinesterase inhibitors: pyridostigmine (i.p. 1 mg/kg), galantamine (s.c. 1 mg/kg) or physostigmine (i.p., 0.3 mg/kg), (FIG. 4B, F(3,47)=8.323 p<0.05). […]

## CN(C)C(=O)Oc1ccc[n+](C)c1 [pyridostigmine]
  grip-strength (maximal grip-force): improved

— patent publication US9139638B2, “Mouse model of cholinergic dysfunction to evaluate cognitive enhancers and drugs that improve myasthenia” (priority 2006, dated 2015)
